Here are results for one substance from US10696989B2, “Biological method for preparing heme iron not derived from porcine blood” (INTRON BIOTECHNOLOGY, INC., priority 2017, dated 2020).

The data set concerns iron-deficiency-anemia-induced animals. Nature of the data set: Effectiveness of heme iron salt on alleviating anemia in iron-deficiency-anemia-induced rats. Format: in vivo, Sprague-Dawley rats. Particulars: oral once a day, 0.1 mg Fe/500 μl saline. The method, then: The salt of the heme iron prepared according to the present invention was dissolved in saline and administered to iron-deficiency-anemia-induced animals, whereby the effectiveness of the salt of the heme iron prepared according to the present invention on alleviating anemia was evaluated. Specifically, thirty 7-week-old Sprague-Dawley rats (female) were divided into 3 groups of 10 rats per group, among which one group was fed with normal feed in an amount of 10% of body weight daily for one month (Group 1; control), and the remaining two groups were fed with iron-deficient feed in an amount of 10% of body weight daily for one month to induce iron-deficiency anemia (Group 2 and Group 3). After one month of feeding, it was confirmed that iron-deficiency anemia was induced in the individual rat belonging to Group 2 and Group 3. Then, one of the anemia-induced groups was orally administered once a day with saline alone (Group 2), and the other anemia-induced group was orally administered once a day with saline containing heme iron (0.1 mg Fe/500 μl saline) (Group 3). The administration continued for 30 days, and the occurrence of abnormal symptoms was monitored during the administration period. After 30 days of administration, blood was collected, and whether anemia was alleviated was evaluated. During 30 days of administration to Group 2 and Group 3, Group 1 was continuously fed with normal feed, and Group 2 and Group 3 were fed with iron-deficient feed. […]

Where [1] appears, read: female rats on iron-deficient feed, blood collected after 30 days.

Regarding heme iron, for the setting “female rats on iron-deficient feed, 30 days”, the “Weight of rats on 30th day after administration” value is listed as 265.2 ± 1.1 g. Under setting [1], the “Blood test: Hematocrit” value was determined as 35.8 ± 1.9%, the “Blood test: Hemoglobin content” value is 14.2 ± 0.4 g/dL, the “Blood test: Mean corpuscular volume” value was 48.2 ± 2.2 fL and the “Blood test: RBC” value is on record as 8.59 ± 0.1 ×10^6/μl. For the same substance, where the note is “30 days”, the “Alleviation of iron-deficiency anemia (conclusion)” value is reported as “effective at alleviating iron-deficiency anemia” and the “Occurrence of abnormal symptoms during the administration period” value is given as “no abnormal symptoms”.
